According to patent publication US9895314B2, “Delayed release pharmaceutical formulation containing porous carrier particles for colon targeting” (Tillotts Pharma AG, priority 2014, dated 2018):

Assay: Accelerated stability study, compatibility of MBZ and FCC (HPLC-UV)
Assay type: physicochemical
Details: drug loaded FCC with 20 and 50% drug content, 25° C., 40° C. and 60° C., 25 days
Experimental: The compatibility of MBZ and FCC was investigated by an accelerated stability study. Drug loaded FCC particles with 20 and 50% drug content were stored at 25° C., 40° C. and 60° C. over a period of 25 days. On several days the MBZ content was analyzed by HPLC-UV.

degradation products from hydrolysis (metronidazole, benzoic acid) detected: not any degradation products
SMILES: Cc1ncc([N+](=O)[O-])n1CCOC(=O)c1ccccc1 [MBZ, metronidazole benzoate]
